Experimental data reported in the NIST ThermoML archive (doi:10.1021/je025657+).
“And” between values parts separate entries of the source, which are not always exact repeats. Equal entries are not always repeated.

Conditions: for vapor or sublimation pressure: Closed cell (Static) method

COC(F)(F)F [trifluoromethoxymethane]
Gas, Burnett expansion method
Conditions	mass density [kg/m3]
320 K, 421.5 kPa	17.3
320 K, 570.4 kPa	24.28
320 K, 604.9 kPa	25.98
320 K, 802.9 kPa	36.45
320 K, 847.1 kPa	38.98
330 K, 137.5 kPa	5.133
330 K, 188.9 kPa	7.099
330 K, 203.7 kPa	7.696
330 K, 280.6 kPa	10.75
330 K, 300.2 kPa	11.55
330 K, 410.7 kPa	16.13
330 K, 437.5 kPa	17.29
330 K, 594.3 kPa	24.27
330 K, 630.6 kPa	25.96
330 K, 841.9 kPa	36.48
330 K, 889 kPa	38.98
340 K, 141.7 kPa	5.126
340 K, 195.8 kPa	7.136
340 K, 210.4 kPa	7.694
340 K, 310.5 kPa	11.54
340 K, 425.6 kPa	16.13
340 K, 453.5 kPa	17.28
340 K, 655.6 kPa	25.94
340 K, 879.5 kPa	36.45
340 K, 929.4 kPa	38.95
340 K, 1216.9 kPa	54.78
340 K, 1278.5 kPa	58.56
340 K, 1605.8 kPa	82.06
350 K, 146.2 kPa	5.127
350 K, 202.9 kPa	7.174
350 K, 217 kPa	7.688
350 K, 299.5 kPa	10.74
350 K, 320.6 kPa	11.53
350 K, 469.2 kPa	17.27
350 K, 640.8 kPa	24.25
350 K, 680.3 kPa	25.92
350 K, 969 kPa	38.92
350 K, 1277.1 kPa	54.75
350 K, 1343.5 kPa	58.5
350 K, 1709.6 kPa	82.31
350 K, 1782.8 kPa	87.93
360 K, 150.4 kPa	5.122
360 K, 208.1 kPa	7.139
360 K, 223.5 kPa	7.683
360 K, 330.6 kPa	11.52
360 K, 455 kPa	16.13
360 K, 484.7 kPa	17.25
360 K, 704.6 kPa	25.9
360 K, 952.6 kPa	36.41
360 K, 1007.9 kPa	38.88
360 K, 1335.8 kPa	54.71
360 K, 1406.7 kPa	58.43
360 K, 1807.1 kPa	82.26
360 K, 1888.4 kPa	87.85
360 K, 2309 kPa	123.6
360 K, 2385.4 kPa	132
370 K, 154.7 kPa	5.117
370 K, 215.6 kPa	7.182
370 K, 230 kPa	7.677
370 K, 318.3 kPa	10.73
370 K, 340.6 kPa	11.52
370 K, 500.1 kPa	17.24
370 K, 686.1 kPa	24.23
370 K, 728.8 kPa	25.88
370 K, 1046.2 kPa	38.85
370 K, 1393.4 kPa	54.67
370 K, 1468.6 kPa	58.37
370 K, 1901.8 kPa	82.19
370 K, 1990.6 kPa	87.72
370 K, 2469.3 kPa	123.6
370 K, 2559 kPa	132
370 K, 2970.3 kPa	185.3
370 K, 3031.6 kPa	197.4
380 K, 147.8 kPa	4.751
380 K, 158.9 kPa	5.114
380 K, 220.5 kPa	7.14
380 K, 236.5 kPa	7.671
380 K, 327.6 kPa	10.73
380 K, 350.5 kPa	11.51
380 K, 483.9 kPa	16.12
380 K, 515.4 kPa	17.23
380 K, 708.4 kPa	24.22
380 K, 752.6 kPa	25.86
380 K, 1023.5 kPa	36.37
380 K, 1084 kPa	38.82
380 K, 1450 kPa	54.63
380 K, 1529.5 kPa	58.32
380 K, 1994.4 kPa	82.12
380 K, 2092.4 kPa	87.73
380 K, 2624.1 kPa	123.5
380 K, 2726.4 kPa	131.8
380 K, 3233.6 kPa	185.9
380 K, 3316.9 kPa	198.3
380 K, 3647 kPa	276.7
380 K, 3686.3 kPa	294.2
380 K, 3776.4 kPa	381.1
380 K, 3786.4 kPa	439.7

Conditions	mass density [kg/m3]
320 K, 449.1 kPa, Gas	18.62
320 K, 634.7 kPa, Gas	27.54
320 K, 968.5 kPa, Gas	46.37
320 K, 1046.3 kPa, Liquid	1013.52
320 K, 1081.4 kPa, Liquid	1013.85
320 K, 1117.7 kPa, Liquid	1014.21
320 K, 1512.4 kPa, Liquid	1017.85
320 K, 1515.2 kPa, Liquid	1018.55
320 K, 2029.1 kPa, Liquid	1023.1
320 K, 2036.4 kPa, Liquid	1022.49
320 K, 2520.5 kPa, Liquid	1026.61
320 K, 2529.1 kPa, Liquid	1027.35
320 K, 3012.2 kPa, Liquid	1031.29
320 K, 3050.4 kPa, Liquid	1030.92
320 K, 3512.7 kPa, Liquid	1035.21
320 K, 3595.2 kPa, Liquid	1035.17
320 K, 4030.7 kPa, Liquid	1039.11
320 K, 4131.4 kPa, Liquid	1039.19
320 K, 4518.5 kPa, Liquid	1042.67
320 K, 4616.1 kPa, Liquid	1042.69
320 K, 5039.6 kPa, Liquid	1046.35
320 K, 5136.9 kPa, Liquid	1046.33
320 K, 5518 kPa, Liquid	1049.62
320 K, 5652.1 kPa, Liquid	1049.82
320 K, 6055.9 kPa, Liquid	1053.18
320 K, 6201.4 kPa, Liquid	1053.41
320 K, 6522.4 kPa, Liquid	1056.19
320 K, 6721.8 kPa, Liquid	1056.72
320 K, 6877.8 kPa, Liquid	1058.42
320 K, 7175.8 kPa, Liquid	1059.52
330 K, 72.1 kPa, Gas	2.7
330 K, 106.1 kPa, Gas	3.97
330 K, 155.7 kPa, Gas	5.88
330 K, 227.6 kPa, Gas	8.7
330 K, 330.5 kPa, Gas	12.87
330 K, 475.1 kPa, Gas	19.02
330 K, 674.2 kPa, Gas	28.13
330 K, 936.5 kPa, Gas	41.69
330 K, 1364.9 kPa, Liquid	972.53
330 K, 1414.6 kPa, Liquid	973.15
330 K, 1458.1 kPa, Liquid	973.66
330 K, 2087 kPa, Liquid	981.1
330 K, 2555.2 kPa, Liquid	986.24
330 K, 3114.9 kPa, Liquid	992.08
330 K, 3553.8 kPa, Liquid	996.38
330 K, 4105.6 kPa, Liquid	1001.58
330 K, 4643.4 kPa, Liquid	1006.39
330 K, 5117 kPa, Liquid	1010.47
330 K, 5639.1 kPa, Liquid	1014.76
330 K, 6168.6 kPa, Liquid	1018.96
330 K, 6739.6 kPa, Liquid	1023.31
330 K, 7155.4 kPa, Liquid	1026.38
340 K, 1691.6 kPa, Liquid	925.88
340 K, 1704.5 kPa, Liquid	926.14
340 K, 1776.3 kPa, Liquid	927.36
340 K, 2059.3 kPa, Liquid	932.03
340 K, 2582.2 kPa, Liquid	940.1
340 K, 3081.7 kPa, Liquid	947.17
340 K, 3596.1 kPa, Liquid	953.91
340 K, 4130.8 kPa, Liquid	960.48
340 K, 4614 kPa, Liquid	966.04
340 K, 5146.7 kPa, Liquid	971.84
340 K, 5642.7 kPa, Liquid	976.95
340 K, 6163.1 kPa, Liquid	982.05
340 K, 6711.6 kPa, Liquid	987.19
340 K, 7112.6 kPa, Liquid	990.78
350 K, 2091.1 kPa, Liquid	872.23
350 K, 2104.3 kPa, Liquid	872.59
350 K, 2141.2 kPa, Liquid	873.54
350 K, 2548.5 kPa, Liquid	883.49
350 K, 3078 kPa, Liquid	894.77
350 K, 3561.7 kPa, Liquid	903.94
350 K, 4061.4 kPa, Liquid	912.5
350 K, 4604.4 kPa, Liquid	920.96
350 K, 5110.9 kPa, Liquid	928.26
350 K, 5614.7 kPa, Liquid	935
350 K, 6145.6 kPa, Liquid	941.66
350 K, 6708.6 kPa, Liquid	948.27
350 K, 7180.7 kPa, Liquid	953.51
360 K, 2566.6 kPa, Liquid	806.04
360 K, 2595.3 kPa, Liquid	807.47
360 K, 2674 kPa, Liquid	811
360 K, 3046.9 kPa, Liquid	825.94
360 K, 3567.7 kPa, Liquid	842.69
360 K, 4099.1 kPa, Liquid	856.85
360 K, 4614.4 kPa, Liquid	868.64
360 K, 5110 kPa, Liquid	878.67
360 K, 5611.7 kPa, Liquid	887.84
360 K, 6201.7 kPa, Liquid	897.63
360 K, 6215.7 kPa, Liquid	897.87
360 K, 6705.8 kPa, Liquid	905.3
360 K, 7100.8 kPa, Liquid	910.94
370 K, 3130.2 kPa, Liquid	712.6
370 K, 3147.8 kPa, Liquid	715.08
370 K, 3586 kPa, Liquid	754.94
370 K, 4068.1 kPa, Liquid	781.44
370 K, 4642.5 kPa, Liquid	804.25
370 K, 5159.1 kPa, Liquid	820.53
370 K, 5641.4 kPa, Liquid	833.56
370 K, 6176.7 kPa, Liquid	846.09
370 K, 6712.7 kPa, Liquid	857.24
370 K, 7155.1 kPa, Liquid	865.58
380 K, 345.8 kPa, Gas	11.4
380 K, 411.6 kPa, Gas	13.64
380 K, 637.2 kPa, Gas	21.72
380 K, 1069 kPa, Gas	38.43
380 K, 1190.9 kPa, Gas	43.52
380 K, 1736.8 kPa, Gas	68.74
380 K, 2282.2 kPa, Gas	99.68
380 K, 2913 kPa, Gas	148.72
380 K, 3383.7 kPa, Gas	207.93
380 K, 3672.6 kPa, Gas	287.87
380 K, 3791.1 kPa, Gas	430.78
380 K, 3807.7 kPa, Liquid	489.63
380 K, 4003.4 kPa, Liquid	629
380 K, 4596.7 kPa, Liquid	707.34
380 K, 5159.5 kPa, Liquid	743.66
380 K, 5653.6 kPa, Liquid	766.09
380 K, 6175.8 kPa, Liquid	785.18
380 K, 6672.5 kPa, Liquid	800.32
380 K, 7138.9 kPa, Liquid	812.7

Liquid
Conditions	mass density	vapor or sublimation pressure
320 K	1013.47 kg/m3 and 1014.09 kg/m3	1038.1 kPa and 1038.5 kPa and 1038.4 kPa
325 K	–	1175.7 kPa
330 K	972.09 kg/m3 and 973.36 kg/m3 and 973.37 kg/m3	1325.7 kPa and 1325.6 kPa
335 K	–	1489.7 kPa
340 K	925.57 kg/m3	1668.8 kPa and 1668.5 kPa and 1670.2 kPa
345 K	–	1863.6 kPa
350 K	871.95 kg/m3	2074.9 kPa and 2075 kPa and 2071.7 kPa
355 K	–	2304.3 kPa
360 K	805.64 kg/m3	2553.1 kPa and 2553.8 kPa and 2554.9 kPa
365 K	–	2823.3 kPa
370 K	711.78 kg/m3	3116.4 kPa and 3117.3 kPa and 3117.1 kPa
375 K	–	3435.7 kPa
